Results reported in patent publication US20260000736A1, “PURIFIED LACTOFERRIN COMPOSITIONS AND METHODS OF USE” (Lactea Therapeutics LLC, priority 2023, published 2026).
Where a SMILES comes first, the peptide text is derived from it. Bridges are numbered along the chain shown (N, C = ends). [ ]: non-standard residue; d: D form. The star is where a group is joined. Ileψ(thiazoline)Cys = CC[C@H](C)[C@H](N)C1=N[C@H](C(=O)*)CS1; dOrn = NCCC[C@@H](N)C(=O)O

How the values were obtained:
[1] = test system: SARS-CoV-2; assay: SARS-CoV-2 Cytopathic Effect (CPE) reduction assay in Vero E6 cells; type: cell-based; settings: Severe acute respiratory syndrome coronavirus 2, Vero C1008, 72 h
[2] = test system: pigs with dermatome wounds; assay: Pig dermatome wound healing model; type: in vivo; settings: dermatome wounds 40×40 mm at a depth of 0.76 mm, topical treatment
Description: In a first assessment in a pig model setting, using a dermatome, six wounds were made on each pig with three on the left side and three on the right side of each pig covering a surface area of 40×40 mm at a depth of 0.76 mm. […] For each pig, the wounds on the left of the animal were treated while the wounds on the right wide were left as untreated controls. […] Standard of care was advised on by veterinarians with experience in dealing with wound management in a farm setting.

| SMILES | EC50 [1] | wound healing [2] |
| --- | --- | --- |
| CCC(CC)COC(=O)[C@H](C)N[P@](=O)(OC[C@H]1O[C@@](C#N)(c2ccc3c(N)ncnn23)[C@H](O)[C@@H]1O)Oc1ccccc1 [Remdesivir, reference compound] | 4.5 µM | – |
| CC[C@H](C)[C@H](N)C1=N[C@H](C(=O)N[C@@H](CC(C)C)C(=O)N[C@H](CCC(=O)O)C(=O)N[C@H](C(=O)N[C@H]2CCCCNC(=O)[C@H](CC(N)=O)NC(=O)[C@@H](CC(=O)O)NC(=O)[C@H](Cc3cnc[nH]3)NC(=O)[C@@H](Cc3ccccc3)NC(=O)[C@H]([C@@H](C)CC)NC(=O)[C@@H](CCCN)NC2=O)[C@@H](C)CC)CS1 [bacitracin, reference compound] ({Ileψ(thiazoline)Cys}-L[dE]IK[dOrn]I[dF]H[dD]N; lactam 4-C) | – | treated wounds were still open after one week |
